Data reported in ChEMBL document CHEMBL2157888, “The therapeutic journey of benzimidazoles: a review” (Bioorg Med Chem, 2012).
pIC50, pKi: −log10 of the molar value. Values after ≈ are worked out from the molar mass of the structure shown.

Tests used:
[1] = biological target: T1, C-C chemokine receptor type 3 (Homo sapiens, UniProt P51677); test: Inhibition of CCR3 receptor
T1 sequence (P51677 whole entry): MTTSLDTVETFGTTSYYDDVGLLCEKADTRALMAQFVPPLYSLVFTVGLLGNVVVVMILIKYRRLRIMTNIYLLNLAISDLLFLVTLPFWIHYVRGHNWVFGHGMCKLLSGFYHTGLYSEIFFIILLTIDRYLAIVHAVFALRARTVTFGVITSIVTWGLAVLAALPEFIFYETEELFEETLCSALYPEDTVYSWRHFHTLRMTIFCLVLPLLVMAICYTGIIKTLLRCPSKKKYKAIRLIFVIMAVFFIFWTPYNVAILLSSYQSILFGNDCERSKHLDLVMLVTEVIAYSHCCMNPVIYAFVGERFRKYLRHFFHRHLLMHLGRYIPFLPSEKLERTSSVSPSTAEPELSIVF

[2] = Aqueous solubility of the compound; type: physicochemical; settings: water (aqueous)
[3] = biological target: T2, Gonadotropin-releasing hormone receptor (Homo sapiens, UniProt P30968); test: Inhibition of GnRH receptor
T2 sequence (P30968 whole entry): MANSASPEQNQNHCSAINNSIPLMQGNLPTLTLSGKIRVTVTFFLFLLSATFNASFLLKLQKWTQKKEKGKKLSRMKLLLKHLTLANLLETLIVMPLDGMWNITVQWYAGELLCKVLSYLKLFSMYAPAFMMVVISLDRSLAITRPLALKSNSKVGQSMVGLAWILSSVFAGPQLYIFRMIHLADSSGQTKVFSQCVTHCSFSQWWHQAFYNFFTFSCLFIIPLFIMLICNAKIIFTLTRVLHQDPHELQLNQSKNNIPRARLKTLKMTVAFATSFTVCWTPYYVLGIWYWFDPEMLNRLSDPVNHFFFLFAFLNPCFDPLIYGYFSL

Row | pKi [1] | solubility [2] [µg/mL] | pIC50 [3] | SMILES
1 | 7.00 | – | – | Fc1ccc2c(c1)nc(CC(F)(F)F)n2C1CCNCC1
2 | 8.05 | – | – | Fc1ccc(SCCCN2CCC(n3c(CC(F)(F)F)nc4cc(F)ccc43)CC2)cc1
3 | – | 55 (≈ 120 µM) | 8.15 | CCc1cc(CN2CCN(c3cccc4[nH]c(-c5ccc(C(C)(C)C)cc5)nc34)CC2)nn1C
4 | – | 100 (≈ 212 µM) | – | CCCn1cc(CN2CCN(c3cccc4[nH]c(-c5ccc(C(C)(C)C)cc5)nc34)CC2)nc1C
